Structures can show the parent of a compound that is named as a salt. Numbered stars: 1 amine (or outer) side, 2 acyl side, 3 side chain; on linkers, the order of the positions; unused ones are H or OH. Bridge positions count the residues as written; N and C are the ends. Peptide text beside a SMILES is read from it. X1 = O=C(CCC[*:2])[*:1]
Legend:
[1] = tested on: infants of mothers who took the drug during the first 42 days of pregnancy; conditions: mothers took the drug during the first 42 days of pregnancy; other drugs 4.6 per 100, no drugs 2.6 per 100; cited from earlier work
[2] = cited from earlier work
oxytocin receptor [3] = molecular target: T1, oxytocin receptor (Homo sapiens, UniProt P30559); conditions: cited from earlier work
T1 sequence (P30559 whole entry, species assumed): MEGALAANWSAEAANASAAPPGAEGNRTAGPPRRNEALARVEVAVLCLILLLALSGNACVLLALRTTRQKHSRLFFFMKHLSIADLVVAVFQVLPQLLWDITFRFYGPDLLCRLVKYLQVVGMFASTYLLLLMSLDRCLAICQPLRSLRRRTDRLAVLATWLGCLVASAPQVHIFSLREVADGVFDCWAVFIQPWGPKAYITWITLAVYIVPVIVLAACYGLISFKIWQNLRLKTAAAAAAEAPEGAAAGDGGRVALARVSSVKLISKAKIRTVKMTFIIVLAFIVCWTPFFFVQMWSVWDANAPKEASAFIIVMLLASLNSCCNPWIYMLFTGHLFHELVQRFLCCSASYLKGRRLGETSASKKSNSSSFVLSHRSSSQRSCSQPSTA

oxytocin receptor [4] = molecular target: T1, oxytocin receptor; conditions: cited from earlier work; remark: listed apart in the source
[5] = tested on: rat pups chronically exposed to diazepam prenatally; conditions: 2 mg/kg s.c. daily, first 10 postnatal days
[6] = tested on: adolescent rats chronically exposed to morphine prenatally; assay: Automated Three-Chamber Test, adolescent rats exposed to morphine prenatally (Example 9); assay type: in vivo; conditions: first 10 postnatal days, tested postnatal days 31-35
Source text: (§1) Briefly, the Three-Chamber Test assesses cognition in the form of social novelty and social memory; Social novelty occurs in three sessions within a three-chambered box with openings between the chambers. After habituation to the empty box, the test animal encounters a novel conspecific under one pencil cup and an empty pencil cup. The test animal then encounters the familiar conspecific and a second novel conspecific under the previously empty pencil cup; Animals that show intact social novelty behavior will show a preference to investigate the novel conspecific; Twenty-four hours later, social memory is tested by placing the test animal back in to the chamber with the two familiar conspecifics; Animals with intact social memory will spend an equal amount of time investigating the two familiar conspecifics. Duration of time spent investigating conspecifics is measured automatically using a SmartCage™.

[7] = tested on: rat pups chronically exposed to diazepam prenatally; assay: Survival and body weight, three oxytocin doses, rat pups exposed to diazepam prenatally (Example 10); conditions: first 10 postnatal days
[8] = tested on: rat pups chronically exposed to morphine prenatally; assay: Naloxone-induced withdrawal in rat pups exposed to morphine prenatally (Example 1); assay type: in vivo, Sprague-Dawley rats
[9] = tested on: rat pups chronically exposed to diazepam prenatally; assay: Locomotor activity during withdrawal, rats exposed to diazepam prenatally (Example 11)
Protocol: Briefly, locomotor activity is measured by placing an animal in to a small standardized test chamber for a five-minute period. Distance travelled, and time spent active is measured automatically using a SmartCage™.

healthy rats = assay: Survival and body weight during development in healthy rats (Example 14); assay type: in vivo, Sprague-Dawley rats; conditions: 0.3, 1 or 2 mg/kg daily, first 10 postnatal days; drug naive pups
[10] = tested on: adolescent rats chronically exposed to morphine prenatally; assay: Light-Dark Box, adolescent rats exposed to morphine prenatally (Example 8); assay type: in vivo; conditions: 0.3 mg/kg s.c. daily, first 10 postnatal days; tested postnatal days 31-35; vs saline (FIG. 8a)
[11] = tested on: adolescent rats chronically exposed to fluoxetine prenatally; assay: Light/Dark Box, adolescent rats exposed to fluoxetine prenatally (Example 5); assay type: in vivo; conditions: 2 mg/kg s.c. daily, first 10 postnatal days; tested postnatal days 31-35; vs saline (data not shown)
[12] = tested on: adolescent rats chronically exposed to diazepam prenatally; assay: Automated Three-Chamber Test, adolescent rats exposed to diazepam prenatally (Example 13); assay type: in vivo; conditions: first 10 postnatal days, tested postnatal days 31-35
Source text: as §1

[13] = tested on: rat pups chronically exposed to morphine prenatally; assay type: in vivo, Sprague-Dawley rats; conditions: 2 mg/kg s.c. daily, first 10 postnatal days; survival measured for 15 days; vs saline (FIG. 2a)
[14] = tested on: rat pups chronically exposed to morphine prenatally; assay: Locomotor activity during withdrawal, rats exposed to morphine prenatally (Example 7); assay type: in vivo
[15] = tested on: rat pups chronically exposed to morphine prenatally; assay type: in vivo, Sprague-Dawley rats; conditions: all three doses (0.3, 1, 2 mg/kg) s.c. daily, first 10 postnatal days; vs saline (FIG. 6a)
[16] = tested on: adolescent rats chronically exposed to diazepam prenatally; assay: Passive Avoidance Test, adolescent rats exposed to diazepam prenatally (Example 12); conditions: all doses (0.3, 1, 2 mg/kg) s.c., first 10 postnatal days; tested postnatal days 31-35; vs saline (FIG. 12b)
Source text: Briefly, in the Passive Avoidance Test an animal learns to avoid an unpleasant stimulus by inhibiting locomotion and exploration; On the training day, rats are placed in a brightly lit compartment of a test chamber; The animal quickly moves in to an adjacent dark compartment of the test chamber and receives an unavoidable mild foot shock; Twenty-four hours later during the test phase, the animals are again placed in to the light compartment and the latency to re-enter the dark compartment is measured. Latency to enter a compartment is automatically measured using a SmartCage™.

[17] = tested on: adolescent rats chronically exposed to fluoxetine prenatally; assay: Passive Avoidance Test, adolescent rats exposed to fluoxetine prenatally (Example 5); assay type: in vivo; conditions: 2 mg/kg s.c. daily, first 10 postnatal days; tested postnatal days 31-35; vs saline (FIG. 5)
[18] = tested on: adolescent rats chronically exposed to morphine prenatally; assay: Passive Avoidance Test, adolescent rats exposed to morphine prenatally (Example 8); assay type: in vivo; conditions: 2 mg/kg s.c. daily, first 10 postnatal days; tested postnatal days 31-35; vs saline (FIG. 8b)
[19] = tested on: adolescent rats chronically exposed to diazepam prenatally; assay: Light-Dark Box, adolescent rats exposed to diazepam prenatally (Example 12); conditions: 1 mg/kg and 2 mg/kg s.c., first 10 postnatal days; tested postnatal days 31-35; vs saline (FIG. 12a)
[20] = tested on: adolescent rats chronically exposed to fluoxetine prenatally; assay: Locomotor activity, adolescent rats exposed to fluoxetine prenatally (Example 5); assay type: in vivo; conditions: 2 mg/kg s.c. daily, first 10 postnatal days; tested postnatal days 31-35; vs saline (data not shown)
[21] = tested on: rat pups chronically exposed to fluoxetine prenatally; assay: Survival and body weight, rat pups exposed to fluoxetine prenatally (Example 4); assay type: in vivo, Sprague-Dawley rats; conditions: 2 mg/kg s.c. daily
[22] = 1 or 2 mg/kg s.c. daily, vs saline (FIG. 7a)

Structure (SMILES): CNC1=Nc2ccc(Cl)cc2C(c2ccccc2)=[N+]([O-])C1 [chlordiazepoxide, Chlordiazepoxide hydrochloride]
- severe congenital anomalies among infants [1]: 11.4 per 100

Structure (SMILES): Cc1nnc2n1-c1ccc(Cl)cc1C(c1ccccc1)=NC2 [Alprazolam]
- half-life ([2]; in vivo): ten to 24

Structure (SMILES): O=C1Nc2ccc(Cl)cc2C(c2ccccc2Cl)=NC1O (centres unmarked) [Lorazepam]
- half-life in adults ([2]; adults): about 12 hours

Structure (SMILES): CC[C@H](C)[C@@H]1NC(=O)[C@H](Cc2ccc(OC)cc2)NC(=O)CCCSC[C@@H](C(=O)N2CCC[C@H]2C(=O)N[C@@H](CC(C)C)C(=O)NCC(N)=O)NC(=O)[C@H](CC(N)=O)NC(=O)[C@H](CCC(N)=O)NC1=O [carbetocin, 1-Butanoic acid-2-(O-methyl-L-tyrosine)-1-carbaoxytocin] (Y(Me)IQNCPLG-NH2; linker N-5 via X1)
- affinity of the oxytocin receptor, compared with oxytocin (oxytocin receptor [3]): equal affinity
- biological effect relative to endogenous or exogenous oxytocin (oxytocin receptor [4]): ~50%

Structure (SMILES): CC[C@H](C)[C@@H]1NC(=O)[C@H](Cc2ccc(O)cc2)NC(=O)[C@@H](N)CSSC[C@@H](C(=O)N2CCC[C@H]2C(=O)N[C@@H](CC(C)C)C(=O)NCC(N)=O)NC(=O)[C@H](CC(N)=O)NC(=O)[C@H](CCC(N)=O)NC1=O [oxytocin]
- percentage survival rates ([5]; survival measured for 15 days, vs saline (FIG. 3a)): clear statistically significant improvement
- body weight, various time points of the dosing period ([5]; vs saline (FIG. 3b)): clear statistically significant increase
- body weight at postnatal day 31 ([5]; vs saline (FIG. 3c)): clear statistically significant decrease
- social memory function (time investigating a familiar conspecific) ([6]; 2 mg/kg s.c. daily, vs saline (FIG. 9b)): statistical trend towards improved social memory function
- social novelty behavior (time investigating a novel conspecific) ([6]; all doses (0.3, 1, 2 mg/kg) s.c. daily, vs saline (FIG. 9a)): trend towards increased social novelty behavior
- percentage survival rates for the first 30 postnatal days ([7]; 2 mg/kg s.c. daily, vs saline (FIG. 10a)): clear statistically significant improvement
- body weight throughout the first 30 postnatal days ([7]; all three doses (0.3, 1, 2 mg/kg) s.c. daily, vs saline (FIG. 10b)): clear statistically significant decrease
- locomotor activity ([8]; single dose 2 mg/kg s.c. after naloxone, postnatal day one, up to 30 minutes post-naloxone, vs saline (FIG. 1a)): clear statistically significant reduction
- scores of rolling behavior ([8]; single dose 2 mg/kg s.c., up to 45 minutes, vs saline (FIG. 1b)): numerical reduction
- scores of curling behavior ([8]; single dose 2 mg/kg s.c., up to 45 minutes, vs saline (FIG. 1c)): numerical reduction
- percentage survival rates at postnatal day 10 ([8]; single dose 2 mg/kg s.c., vs saline (FIG. 1d)): improved percentage survival rates
- locomotor activity on postnatal day 6 ([9]; 0.3 mg/kg and 2 mg/kg s.c. daily, vs saline (FIG. 11a)): clear statistically significant decrease
- locomotor activity on postnatal day 30 ([9]; 2 mg/kg s.c. daily, first 10 postnatal days, vs saline (FIG. 11b)): clear statistically significant decrease
- locomotor activity on postnatal day 9 ([9]; 2 mg/kg s.c. daily, vs saline (FIG. 11a)): clear statistically significant decrease
- locomotor activity on postnatal days 3 and 6 ([9]; all three doses (0.3, 1, 2 mg/kg) s.c. daily, vs saline): clear statistically significant decrease
- survival for the first 30 postnatal days (healthy rats): survived for the first 30 postnatal days
- anxiety-like behavior (time in the light chamber) [10]: clear statistically significant decrease
- anxiety-like behavior [11]: No meaningful differences
- social memory function (time investigating a familiar conspecific) ([12]; 2 mg/kg s.c. daily, vs saline (FIG. 13b)): statistical trend toward improved social memory function
- social novelty behavior (time investigating a novel animal) ([12]; 1 and 2 mg/kg s.c. daily, vs saline (FIG. 13a)): clear statistically significant increase
- percentage survival rates [13]: clear statistically significant improvement
- locomotor activity at postnatal day 30 ([14]; 0.3, 1 or 2 mg/kg s.c. daily, first 10 postnatal days, between treatment groups (FIG. 7b)): No meaningful differences
- locomotor activity on postnatal day 6 [14, 22]: clear statistically significant increase
- locomotor activity on postnatal days 3 or 9 [14, 22]: not on postnatal days 3 or 9
- percentage survival rates for the first 30 postnatal days [15]: clear statistically significant improvement
- learning and memory function (latency to enter chamber paired with foot shock) [16]: clear statistically significant improvement
- learning and memory function (latency to enter chamber paired with foot shock) [17]: clear statistically significant improvement
- learning and memory function (latency to enter chamber paired with foot shock) [18]: numerical improvement
- anxiety-like behavior (time in the light chamber) [19]: clear statistically significant reduction
- locomotor activity [20]: No meaningful differences
- percentage survival rates ([21]; first 10 postnatal days, survival measured for 15 days, vs saline (FIG. 4a)): statistical trend towards improvement
- body weight at postnatal day 36 ([21]; first 10 postnatal days, vs saline (FIG. 4c)): clear statistically significant reduction
- body weights during the first 10 postnatal days ([21]; vs saline (FIG. 4b)): comparable
